Measurements published in patent publication US7671074B2, “Sulfonylguanidine compounds and pharmaceutical uses thereof” (Gruenenthal GmbH, priority 2000, dated 2010).
pIC50: −log10 of the molar value. Where two headings read alike, the source gives them in different places.

How the values were obtained:
gabapentin binding site = assay: Binding assay: displacement of gabapentin from its binding site; conditions: for pIC50: displacement of gabapentin from its binding site; for Percent inhibition: inhibition/displacement of gabapentin, concentration 10^−5 μM [sic]
Method: Gabapentin was used in a binding assay in order to check the binding and affinities of the selected compounds. The affinity of the compounds according to the invention was measured via the displacement of gabapentin from its binding site.

[1] = tested on: male Sprague-Dawley rats with L5/L6 spinal nerve ligatures; assay: In vivo experiments according to Chung (spinal nerve ligation, tactile withdrawal threshold); design: species or system rat; conditions: for ED50: Rattus norvegicus
Method: In male Sprague-Dawley rats spinal nerve ligatures were applied according to Kim and Chung (1992) to the left L5/L6 spinal nerves. At the same time spinal catheters were implanted according to Pogatzki et al. ^6 (2000). 4 to 6 days after the operation the tactile threshold baseline (withdrawal thresholds) was measured on the ipsilateral and contra lateral rear paw by an electronic vonFrey anaesthesiometer (IITC Life Science, USA). […] After the test and baseline measurement, gabapentin and substances according to the invention were administered. The tactile withdrawal thresholds were measured 30 minutes after administration. The results are expressed as ED50 and % maximal possible effect (% MPE; % of the maximal possible effect) on the ipsilateral side, in which the baseline is taken as 0% and the withdrawal threshold of a control group is taken as 100% MPE.

[2] = tested on: male albino mice (NMRI), formalin-induced nociception; assay: Formalin test on mice (second phase); assay type: in vivo, mouse; conditions: Mus musculus, iv, formalin test, i.v., read-out: ED50 value
Method: The investigations to determine the antinociceptive action of the compounds according to the invention were carried out by the formalin test on male albino mice (NMRI, 25-35 g, Iffa Credo, Belgium).
In the formalin test the first (early) phase (0-15 minutes after the formalin injection) and the second (late) phase (15-60 minutes after the formalin injection) differ (D. Dubuisson et al., Pain, Vol. 4, pp. 161-174 (1977)). The early phase, being a direct reaction to the formalin injection, constitutes a model for acute pain, whereas the late phase is regarded as a model for persistent (chronic) pain (T. J. Coderre et al., Pain, Vol. 52, pp. 259-285 (1993)).
The compounds according to the invention were investigated in the second phase of the formalin test in order to obtain information on the effects of substances in chronic/inflammatory pain. By means of a single subcutaneous formalin injection (20 μl, 1% aqueous solution) into the dorsal side of the right-hand rear paw, a nociceptive reaction was induced in unconstrained experimental animals, manifested in a noticeable licking and biting of the affected paw.
The nociceptive behavior for the test period in the second (late) phase of the formalin test was continuously monitored by observing the animals. The pain reaction was quantified by totaling the time in seconds during which the animals continued to lick and bite the affected paw during the investigation period. After injecting substances that have an antinociceptive effect in the formalin test, the aforedescribed behavior pattern of the animals is reduced or possibly even cancelled.
Corresponding to the substance tests, in which the animals had been injected with the test substance before formalin, the control animals were injected with a vehicle, i.e. solvent (e.g. 0.9% NaCl solution) before the formalin injection. […]
Based on the quantification of the pain reaction, the effect of the substance in the formalin test was determined as the change in the control in percentage terms. […]

Compound	pIC50 (gabapentin binding site)	Percent inhibition (gabapentin binding site) [%]	also measured
Cc1ccc(S(=O)(=O)/N=C(\N)NCc2ccccn2)cc1 [Example 1]	6.38	82	ED50 ([1]; 0.5 h, rats, Chung model, tactile withdrawal thresholds 30 minutes after administration, ipsilateral side, read-out: ED50): ~25 mg/kg; ED50 ([1]; read-out:, table title: Analgesia testing in rats according to Chung, further investigation): 10 to 20 mg/kg; superiority to gabapentin (factor) ([1]; rats, Chung model, ED50 compared with gabapentin): 4; effect compared with gabapentin ([1]; rats, Chung test, further investigation, result in words): superior in their effect to gabapentin; effect in the Chung test ([1]; rats, further investigation, result in words): show an effect
Cc1ccc(S(=O)(=O)/N=C(\N)NCc2ccccc2)cc1 [Example 2, N-[amino-(benzylaminomethylene)]-4-methylbenzene-sulfonamide]	–	69.7	–
N/C(=N\S(=O)(=O)c1ccc(Br)cc1)NCc1ccccn1 [Example 32, N-{amino[(pyridin-2-yl-methyl)-amino]-methylene}-4-bromobenzenesulfonamide]	6.66	–	–
N/C(=N\S(=O)(=O)c1ccc(Cl)c(Cl)c1)NCc1ccccn1 [Example 33, N-{amino[(pyridin-2-yl-methyl)-amino]-methylene}-3,4-dichlorobenzenesulfonamide]	5.96	–	–
CC(C)c1ccc(S(=O)(=O)/N=C(\N)NCc2ccccn2)cc1 [Example 34, N-{amino[(pyridin-2-yl-methyl)-amino]-methylene}-4-isopropylbenzenesulfonamide]	7.48	–	–
N/C(=N\S(=O)(=O)c1ccc(I)cc1)NCc1ccccn1 [Example 35, N-{amino[(pyridin-2-yl-methyl)-amino]-methylene}-4-iodobenzenesulfonamide]	7.30	–	–
Cl.N/C(=N\S(=O)(=O)c1ccccc1)NCc1ccccn1 [Example 36, N-{amino[(pyridin-2-yl-methyl)-amino]-methylene}-benzenesulfonamide]	–	17	–
N/C(=N\S(=O)(=O)c1ccc2ccccc2c1)NCc1ccccn1 [Example 37, Naphthalene-2-sulfonic acid amino-[(pyridin-2-yl-methyl)-amino]-methylene amide]	6.91	–	–
CC(=O)Nc1ccc(S(=O)(=O)/N=C(\N)NCc2ccccn2)cc1.Cl [Example 39, N-[4-({amino-[(pyridin-2-yl-methyl)-amino]-methylene}-sulfamoyl)-phenyl]-acetamide]	–	27	–
Cl.N/C(=N\S(=O)(=O)c1ccc(F)cc1)NCc1ccccn1 [Example 40, N-{amino[(pyridin-2-yl-methyl)-amino]-methylene}-4-fluorobenzenesulfonamide]	–	21	–
Cc1cc(C)c(S(=O)(=O)/N=C(\N)NCc2ccccn2)c(C)c1 [Example 41, N-{amino[(pyridin-2-yl-methyl)-amino]-methylene}-2,4,6-trimethylbenzenesulfonamide]	6.36	–	–
CCCc1ccc(S(=O)(=O)/N=C(\N)NCc2ccccn2)cc1 [Example 42, N-{amino[(pyridin-2-yl-methyl)-amino]-methylene}-4-propylbenzenesulfonamide]	7.57	–	–
COc1ccc(S(=O)(=O)/N=C(\N)NCc2ccccn2)cc1 [Example 43, N-{amino[(pyridin-2-yl-methyl)-amino]-methylene}-4-methoxybenzenesulfonamide]	6.20	–	–
N/C(=N\S(=O)(=O)c1cccc2ccccc12)NCc1ccccn1 [Example 44, Naphthalene-1-sulfonic acid amino-[(pyridin-2-yl-methyl)-amino]-methylene amide]	5.28	–	–
Cc1cccc(S(=O)(=O)/N=C(\N)NCc2ccccn2)c1 [Example 45, N-{amino[(pyridin-2-yl-methyl)-amino]-methylene}-3-methylbenzenesulfonamide]	–	35	–
N/C(=N\S(=O)(=O)c1cccs1)NCc1ccccn1 [Example 46, Thiophene-2-sulfonic acid amino-[(pyridin-2-yl-methyl)-amino]-methylene amide]	–	36	–
N/C(=N\S(=O)(=O)c1cccc2cccnc12)NCc1ccccn1 [Example 47, Quinoline-8-sulfonic acid amino-[(pyridin-2-yl-methyl)-amino]-methylene amide]	5.55	–	–

Compound	pIC50 (gabapentin binding site)	Percent inhibition (gabapentin binding site) [%]	also measured
Cc1c(S(=O)(=O)/N=C(\N)NCc2ccccn2)sc2ccc(Cl)cc12 [Example 48, 5-chloro-3-methylbenzo[b]thiophene-2-sulfonic acid amino-[(pyridin-2-yl-methyl)-amino]-methylene amide]	6.87	–	–
CC(C)(C)c1ccc(S(=O)(=O)/N=C(/N)NCc2ccccn2)cc1 [Example 49, N-{amino[(pyridin-2-yl-methyl)-amino]-methylene}-4-tert.-butylbenzenesulfonamide]	7.05	–	–
CCCCc1ccc(S(=O)(=O)/N=C(\N)NCc2ccccn2)cc1 [Example 50, N-{amino[(pyridin-2-yl-methyl)-amino]-methylene}-4-butylbenzenesulfonamide]	6.77	–	–
CC(C)(C)c1ccc(S(=O)(=O)/N=C(/N)NCc2ncccn2)cc1.Cl [Example 51]	–	5	–
CCCCc1ccc(S(=O)(=O)/N=C(/N)NCc2ccco2)cc1.Cl [Example 52, N-{amino[(furan-2-yl-methyl)-amino]-methylene}-4-butylbenzenesulfonamide]	–	47	–
Cc1ccc(S(=O)(=O)/N=C(/N)NCc2ccco2)cc1.Cl [Example 53, N-{amino[(furan-2-yl-methyl)-amino]-methylene}-4-methylbenzenesulfonamide]	–	26	–
CC(C)c1ccc(S(=O)(=O)/N=C(/N)NCc2ccco2)cc1 [Example 54, N-{amino[(furan-2-yl-methyl)-amino]-methylene}-4-isopropylbenzenesulfonamide]	5.45	–	–
CCCc1ccc(S(=O)(=O)/N=C(/N)NCc2ccco2)cc1 [Example 55, N-{amino[(furan-2-yl-methyl)-amino]-methylene}-4-propylbenzenesulfonamide]	5.49	–	–
CC(C)(C)c1ccc(S(=O)(=O)/N=C(/N)NCc2ccco2)cc1.Cl [Example 56, N-{amino[(furan-2-yl-methyl)-amino]-methylene}-4-tert.-butylbenzenesulfonamide]	–	49	–
CCCCc1ccc(S(=O)(=O)/N=C(/N)NCc2cccs2)cc1.Cl [Example 57, N-{amino[(thiophen-2-yl-methyl)-amino]-methylene}-4-butylbenzenesulfonamide]	–	41	–
CCCc1ccc(S(=O)(=O)/N=C(/N)NCc2cccs2)cc1 [Example 58, N-{amino[(thiophen-2-yl-methyl)-amino]-methylene}-4-propylbenzenesulfonamide]	5.74	–	–
CC(C)c1ccc(S(=O)(=O)/N=C(/N)NCc2cccs2)cc1 [Example 59, N-{amino[(thiophen-2-yl-methyl)-amino]-methylene}-4-isopropylbenzenesulfonamide]	6.01	–	–
CC(C)(C)c1ccc(S(=O)(=O)/N=C(/N)NCc2cccs2)cc1 [Example 60, N-{amino[(thiophen-2-yl-methyl)-amino]-methylene}-4-tert.-butylbenzenesulfonamide]	5.24	–	–
Cl.N/C(=N/S(=O)(=O)c1ccc(Cl)cc1)NCc1cccs1 [Example 61, N-{amino[(thiophen-2-yl-methyl)-amino]-methylene}-4-chlorobenzenesulfonamide]	–	24	–
Cc1ccc(S(=O)(=O)/N=C(/N)NCc2cccs2)cc1.Cl [Example 62, N-{amino[(thiophen-2-yl-methyl)-amino]-methylene}-4-methylbenzenesulfonamide]	–	29	–
Cl.N/C(=N/S(=O)(=O)c1ccc(Cl)cc1)NCc1ccco1 [Example 63, N-{amino[(furan-2-yl-methyl)-amino]-methylene}-4-chlorobenzenesulfonamide]	–	23.5	–
NCC1(CC(=O)O)CCCCC1 [gabapentin, reference compound]	–	–	ED50 ([1]; 0.5 h): 92.6 mg/kg; ED50 [2]: 79 mg/kg
